The RepoRT retention time repository (doi:10.1021/acs.analchem.2c02893)

test: RP, Thermo Scientific Acclaim RSLC 120 C18, 100 × 2.1 mm, 2.2 µm, 30 °C, 0.2 mL/min, estimated dead time 1.1 min; A: 90% water + 10% methanol + 0.01% formic acid + 5 mM ammonium formate, pH 3.61; B: methanol + 0.01% formic acid + 5 mM ammonium formate, pH 3.61; gradient (min/%B) 0/1 1/1 2/39 13/99.9 15/99.9 15.1/1 20.1/1; conditions: stereoisomer not certain

Compound | LC retention time
COC=C(C(=O)O)c1ccccc1Oc1cc(Oc2ccccc2C#N)ncn1 [Azoxystrobin acid] | 8.18 min
COC=C(C(=O)OC)c1ccccc1Oc1cc(Oc2ccccc2C#N)ncn1 [Azoxystrobin] | 9.02 min
O=C(Oc1cccc2cccnc12)c1cn(CC2CCCCC2)c2ccccc12 [BB-22] | 12.4 min
CCC(N)Cc1ccc2c(c1)OCO2 (stereo not given) [BDB] | 4.73 min
NCC(CC(=O)O)c1ccc(Cl)cc1 (stereo not given) [Baclofen] | 4.27 min
CN(C)C(=O)Oc1cc(OC(=O)N(C)C)cc(C(O)CNC(C)(C)C)c1 (stereo not given) [Bambuterol] | 5.16 min
CCN(CCO)CCn1c(Cc2ccccc2)nc2c1c(=O)n(C)c(=O)n2C [Bamifylline] | 5.24 min
CN1CCC(N(Cc2ccccc2)c2ccccc2)CC1 [Bamipine] | 7.77 min
O=C(Nc1cccc(Cl)c1)OCC#CCCl [Barban] | 9.74 min
O=C1N(CCN2CCCCC2)C(=O)C(c2ccccc2)(N2CCCCC2)C(=O)N1CCN1CCCCC1 [Barverin] | 7.64 min
O=C(CCCl)NCc1ccccc1 [Beclamide] | 6.27 min
CCC(Oc1ccc(F)c(C(F)(F)F)c1)C(=O)NCc1ccccc1 (stereo not given) [Beflubutamide] | 10.6 min
CC(=O)c1cc2cccc(OCC(O)CNC(C)C)c2o1 (stereo not given) [Befunolol] | 4.93 min
CCN(CC)CCOC(=O)C(O)(c1ccccc1)c1ccccc1 [Benactyzine] | 6.08 min
COC(=O)C(C)N(C(=O)Cc1ccccc1)c1c(C)cccc1C (stereo not given) [Benalaxyl] | 10.9 min
O=C(O)Cn1c(=O)sc2cccc(Cl)c21 [Benazolin] | 5.58 min
CNC(=O)Oc1cccc2c1OC(C)(C)O2 [Bendiocarb] | 7.02 min
NS(=O)(=O)c1cc2c(cc1C(F)(F)F)NC(Cc1ccccc1)NS2(=O)=O (stereo not given) [Bendroflumethiazide] | 6.82 min

Compound | LC retention time
CCOC(=O)CCN(SN(C)C(=O)Oc1cccc2c1OC(C)(C)C2)C(C)C [Benfuracarb] | 11.9 min
O=C(Nc1ccccc1)c1ccccc1I [Benodanil] | 8.02 min
CCCCNC(=O)n1c(NC(=O)OC)nc2ccccc21 [Benomyl (decomposed to Carbendazim)] | 5.46 min
CC(=O)Nc1ccc(OC(=O)c2ccccc2OC(C)=O)cc1 [Benorilate] | 7.41 min
CC1COc2ccccc2N1C(=O)C(Cl)Cl (stereo not given) [Benoxacor] | 8.87 min
O=C(CCCN1CCC(n2c(=O)[nH]c3ccccc32)CC1)c1ccc(F)cc1 [Benperidol] | 5.96 min
CC(COc1ccccc1Cc1ccccc1)N1CCCCC1 (stereo not given) [Benproperine] | 8.32 min
NC(CO)C(=O)NNCc1ccc(O)c(O)c1O (stereo not given) [Benserazide] | 1.38 min
COC(=O)c1ccccc1CS(=O)(=O)NC(=O)Nc1nc(OC)cc(OC)n1 [Bensulfuron-methyl] | 8.77 min
CN(C)C(CSS(=O)(=O)c1ccccc1)CSS(=O)(=O)c1ccccc1 [Bensultap] | 9.6 min
O=C1CN=C(c2ccccc2)c2c(sc3c2CCCC3)N1 [Bentazepam] | 9.49 min
CC(C)N1C(=O)c2ccccc2NS1(=O)=O [Bentazone] | 5.22 min
CC(C)OC(=O)NC(C(=O)NC(C)c1nc2ccc(F)cc2s1)C(C)C (stereo not given) [Benthiavalicarb-isopropyl] | 9.48 min
COc1ccc(CNC(=O)c2cc([N+](=O)[O-])ccc2NC(C)CO)cc1OC (stereo not given) [Benzamidenafil] | 7.8 min
N=C(N)c1ccccc1 [Benzamidine] | 2.63 min
CN1C2CCC1CC(OC(c1ccccc1)c1ccccc1)C2 (stereo not given) [Benzatropine] | 7.97 min
CC(C)(C)CC(C)(C)c1ccc(OCCOCC[N+](C)(C)Cc2ccccc2)cc1 [Benzethonium] | 11.6 min
